The values below come from ChEMBL document CHEMBL4130478, “Improved proteolytic stability and potent activity against Leishmania infantum trypanothione reductase of α/β-peptide foldamers conjugated to cell-penetrating peptides” (Eur J Med Chem, 2017).

Activity calls are given as the source filed them. No cut-off for these calls is given here.

The target of data set [1] is T1, Trypanothione reductase (Leishmania infantum, UniProt A4HSF7). Put plainly: Inhibition of oxidoreductase activity of recombinant Leishmania infantum trypanothione reductase pre-incubated for 10 mins before T[S]2 and NADPH addition.
The target in data set [2] is T1, Trypanothione reductase. In words: Inhibition of dimerization of HIS/FLAG tagged Leishmania infantum trypanothione reductase incubated for 16 hrs in presence of dimerization buffer by ELISA. (ELISA stands for enzyme-linked immunosorbent assay.)
The test system of data set [3] is Leishmania infantum. In words: Leishmanicidal activity against Leishmania infantum MCAN/ES/89/IPZ229/1/89 promastigotes at 25 uM after 24 hrs by propidium iodide staining based flow cytometry. In kind it is functional, organism-based. (In general: Flow cytometry measures light scatter and fluorescence of single cells or particles in a stream.)
In data set [4] the test system is Leishmania infantum. In words: Leishmanicidal activity against Leishmania infantum amastigotes at 25 uM after 24 hrs by propidium iodide staining based flow cytometry. Format: functional, organism-based.
The target of data set [5] is Proteinase K (Engyodontium album, UniProt P06873). In words: Stability assessed as Tritirachium album proteinase K-mediated compound degradation by measuring half life at 50 uM by HPLC method. In kind it is ADME. Conditions: parengyodontium album.

One may read the IC50 as the concentration needed to halve the response being measured. As a reminder, the half-life is the time in which the quantity being followed falls by half.

Proteinase K, sequence (P06873 whole entry): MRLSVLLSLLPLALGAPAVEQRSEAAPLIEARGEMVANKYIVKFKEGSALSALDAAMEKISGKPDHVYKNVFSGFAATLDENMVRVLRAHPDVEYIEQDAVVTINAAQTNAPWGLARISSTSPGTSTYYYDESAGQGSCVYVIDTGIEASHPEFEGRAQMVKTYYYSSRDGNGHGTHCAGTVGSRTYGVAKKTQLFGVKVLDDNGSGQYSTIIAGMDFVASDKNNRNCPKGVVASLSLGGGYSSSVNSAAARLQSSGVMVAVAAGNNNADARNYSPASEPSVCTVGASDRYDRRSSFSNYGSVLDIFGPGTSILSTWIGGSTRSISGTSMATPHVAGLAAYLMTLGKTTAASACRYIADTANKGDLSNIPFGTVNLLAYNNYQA
T1 sequence (A4HSF7 whole entry): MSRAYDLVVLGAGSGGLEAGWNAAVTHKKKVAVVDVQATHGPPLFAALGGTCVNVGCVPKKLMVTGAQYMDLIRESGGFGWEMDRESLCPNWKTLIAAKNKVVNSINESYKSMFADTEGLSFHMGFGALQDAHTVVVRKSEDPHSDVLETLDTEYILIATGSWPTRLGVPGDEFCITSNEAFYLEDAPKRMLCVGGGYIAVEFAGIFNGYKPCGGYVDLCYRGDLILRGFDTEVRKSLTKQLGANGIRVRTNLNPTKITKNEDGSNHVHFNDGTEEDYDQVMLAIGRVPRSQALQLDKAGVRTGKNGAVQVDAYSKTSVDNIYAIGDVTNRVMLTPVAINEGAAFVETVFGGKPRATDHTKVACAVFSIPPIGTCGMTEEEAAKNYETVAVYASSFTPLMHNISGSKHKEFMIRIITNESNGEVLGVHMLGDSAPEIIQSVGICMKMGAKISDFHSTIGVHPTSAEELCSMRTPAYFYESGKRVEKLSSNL

In the case of `CCCC[C@H](NC(=O)[C@H](CCCCN)NC(=O)[C@H](CCCC)NC(=O)[C@H](CO)NC(=O)[C@@H](NC(=O)CNC(=O)C[C@H](NC(=O)[C@H](CO)NC(=O)[C@H](CCC(N)=O)NC(=O)[C@@H](NC(=O)C[C@H](NC(=O)[C@H](CCCCN)NC(=O)[C@@H]1CCCN1C(C)=O)[C@@H](C)CC)[C@@H](C)CC)C(C)C)[C@@H](C)CC)C(N)=O`, the concentration for half-maximal inhibition (IC50) in data set [1] came out at 8.78 µM; in data set [2], 13.7 µM. Also, the outcome in data set [3] and in data set [4] was inactive.

For `CCCC[C@H](NC(=O)[C@H](CCCCN)NC(=O)[C@H](CCCC)NC(=O)[C@@H](CO)NC(=O)[C@@H](NC(=O)CNC(=O)[C@@H](NC(=O)[C@@H](CO)NC(=O)[C@H](CCC(N)=O)NC(=O)[C@@H](NC(=O)[C@@H](NC(=O)[C@H](CCCCN)NC(=O)[C@@H]1CCCN1C(C)=O)[C@@H](C)CC)[C@@H](C)CC)C(C)C)[C@@H](C)CC)C(N)=O`, the result in data set [3] and in data set [4] was inactive.

As for `CCCC[C@@H](CC(N)=O)NC(=O)[C@H](CCCCN)NC(=O)[C@H](CCCC)NC(=O)C[C@H](CO)NC(=O)[C@@H](NC(=O)CNC(=O)[C@@H](NC(=O)C[C@H](CO)NC(=O)[C@H](CCC(N)=O)NC(=O)[C@@H](NC(=O)C[C@H](NC(=O)[C@H](CCCCN)NC(=O)C[C@@H]1CCCN1C(C)=O)[C@@H](C)CC)[C@@H](C)CC)C(C)C)[C@@H](C)CC`, the half-life at 50 µM in data set [5] is 8.62 h. Besides, the figures for the IC50 in data set [1] and in data set [2] were 3.47 µM and 21.7 µM, respectively. Besides, the outcome in data set [3] and in data set [4] was inactive.

Turning to `CC[C@H](C)[C@H](NC(=O)CNC(=O)[C@@H](NC(=O)[C@@H](CO)NC(=O)[C@H](CCC(N)=O)NC(=O)[C@@H](NC(=O)[C@@H](NC(=O)[C@H](CCCCN)NC(=O)[C@@H]1CCCN1C(C)=O)[C@@H](C)CC)[C@@H](C)CC)C(C)C)C(N)=O`, the outcome in data set [3] and in data set [4] was inactive.

Consider `CCCC[C@@H](CC(=O)N[C@@H](CCCCN)C(=O)N[C@@H](CC(N)=O)C(N)=O)NC(=O)[C@H](CO)NC(=O)[C@@H](NC(=O)CNC(=O)C[C@@H](NC(=O)[C@H](CO)NC(=O)[C@H](CCC(N)=O)NC(=O)C(NC(=O)C[C@@H](NC(=O)[C@H](CCCCN)NC(=O)[C@@H]1CCCN1C(C)=O)[C@@H](C)CC)[C@@H](C)CC)C(C)C)[C@@H](C)CC` (single isomer, unassigned), for which, in data set [5], the half-life at 50 µM was less than 0.25 h. For the same compound, the figures for the half-inhibitory concentration (IC50) in data set [1] and in data set [2] were 18.2 µM and 9.72 µM, respectively. The outcome in data set [3] and in data set [4] was inactive.

Regarding `CC[C@H](C)[C@H](CC(=O)N[C@H](C(=O)N[C@@H](CCC(N)=O)C(=O)N[C@@H](CO)C(=O)N[C@@H](CC(=O)NCC(=O)N[C@H](C(N)=O)[C@@H](C)CC)C(C)C)[C@@H](C)CC)NC(=O)[C@H](CCCCN)NC(=O)[C@@H]1CCCN1C(C)=O`, the values for the IC50 in data set [1] and in data set [2] were more than 75 µM and 53 µM, respectively. Moreover, the outcome in data set [3] and in data set [4] was inactive.

For `CCCC[C@H](NC(=O)C[C@H](CCCCN)NC(=O)[C@H](CCCC)NC(=O)[C@H](CO)NC(=O)[C@@H](NC(=O)C[C@H](C)NC(=O)[C@@H](NC(=O)[C@H](CO)NC(=O)[C@H](CCC(N)=O)NC(=O)C[C@@H](NC(=O)[C@@H](NC(=O)[C@H](CCCCN)NC(=O)[C@@H]1CCCN1C(C)=O)[C@@H](C)CC)[C@@H](C)CC)C(C)C)[C@@H](C)CC)C(N)=O`, the IC50 was determined as 5.38 µM in data set [1] and 13.8 µM in data set [2]. Further, the result in data set [3] and in data set [4] was inactive.

In the case of `CC[C@H](C)[C@H](NC(=O)CNC(=O)[C@@H](NC(=O)[C@H](CO)NC(=O)[C@H](CCC(N)=O)NC(=O)[C@@H](NC(=O)[C@@H](NC(=O)[C@H](CCCCN)NC(=O)[C@@H]1CCCN1C(C)=O)[C@@H](C)CC)[C@@H](C)CC)C(C)C)C(N)=O`, the IC50 came to 3.59 µM in data set [1] and 15.7 µM in data set [2].

For `CCCC[C@H](NC(=O)[C@@H](CO)NC(=O)[C@@H](NC(=O)CNC(=O)[C@@H](NC(=O)[C@@H](CO)NC(=O)[C@H](CCC(N)=O)NC(=O)[C@@H](NC(=O)[C@@H](NC(=O)[C@H](CCCCN)NC(=O)[C@@H]1CCCN1C(C)=O)[C@@H](C)CC)[C@@H](C)CC)C(C)C)[C@@H](C)CC)C(N)=O`, the outcome in data set [3] and in data set [4] was inactive.

Regarding `CCCC[C@@H](CC(=O)N[C@@H](CCCCN)C(=O)N[C@@H](CCCC)C(N)=O)NC(=O)[C@H](CO)NC(=O)[C@@H](NC(=O)C[C@H](C)NC(=O)[C@@H](NC(=O)[C@H](CO)NC(=O)[C@H](CCC(N)=O)NC(=O)C[C@H](NC(=O)[C@@H](NC(=O)[C@H](CCCCN)NC(=O)C[C@@H]1CCCN1C(C)=O)[C@@H](C)CC)[C@@H](C)CC)C(C)C)[C@@H](C)CC`, in data set [5], the half-life at 50 µM came out at 0.383 h. For the same compound, the half-inhibitory concentration (IC50) in data set [1] was 2.69 µM; in data set [2], 13.9 µM.

Regarding `CCCC[C@H](NC(=O)C[C@H](CCCCN)NC(=O)[C@H](CCCC)NC(=O)C[C@H](CO)NC(=O)C[C@@H](NC(=O)CNC(=O)[C@@H](NC(=O)C[C@H](CO)NC(=O)C[C@H](CCC(N)=O)NC(=O)[C@@H](NC(=O)[C@@H](NC(=O)C[C@H](CCCCN)NC(=O)C[C@@H]1CCCN1C(C)=O)[C@@H](C)CC)[C@@H](C)CC)C(C)C)[C@@H](C)CC)C(N)=O`, the half-life at 50 µM in data set [5] was found to be 5.28 h. Besides, the results for the IC50 in data set [1] and in data set [2] were 9.28 µM and 15.5 µM, respectively. In addition, the result in data set [3] and in data set [4] was inactive.

For `CCCC[C@@H](CC(N)=O)NC(=O)[C@H](CCCCN)NC(=O)[C@H](CCCC)NC(=O)C[C@H](CO)NC(=O)C[C@H](NC(=O)CNC(=O)[C@@H](NC(=O)C[C@H](CO)NC(=O)[C@H](CCC(N)=O)NC(=O)[C@@H](NC(=O)[C@@H](NC(=O)C[C@H](CCCCN)NC(=O)C[C@@H]1CCCN1C(C)=O)[C@@H](C)CC)[C@@H](C)CC)C(C)C)[C@@H](C)CC`, the half-life at 50 µM in data set [5] is 2.18 h. Besides, the IC50 in data set [1] amounted to 2.08 µM; in data set [2] it was 18 µM. For the same compound, the result in data set [3] and in data set [4] was inactive.

As for `CCCC[C@H](NC(=O)[C@H](CCCCN)NC(=O)[C@H](CCCC)NC(=O)[C@H](CO)NC(=O)[C@@H](NC(=O)CNC(=O)[C@@H](NC(=O)[C@H](CO)NC(=O)[C@H](CCC(N)=O)NC(=O)[C@@H](NC(=O)[C@@H](NC(=O)[C@H](CCCCN)NC(=O)[C@@H]1CCCN1C(C)=O)[C@@H](C)CC)[C@@H](C)CC)C(C)C)[C@@H](C)CC)C(N)=O`, the half-life at 50 µM in data set [5] is 0.383 h. The half-maximal inhibitory concentration (IC50) in data set [1] came out at 1.2 µM; in data set [2], 10.3 µM.

Regarding `CCCC[C@H](NC(=O)[C@H](CO)NC(=O)[C@@H](NC(=O)C[C@H](C)NC(=O)[C@@H](NC(=O)[C@H](CO)NC(=O)[C@H](CCC(N)=O)NC(=O)C[C@@H](NC(=O)[C@@H](NC(=O)[C@H](CCCCN)NC(=O)[C@@H]1CCCN1C(C)=O)[C@@H](C)CC)[C@@H](C)CC)C(C)C)[C@@H](C)CC)C(N)=O`, the results for the concentration for half-maximal inhibition (IC50) in data set [1] and in data set [2] were 28.5 µM and 47.3 µM, respectively. The result in data set [3] and in data set [4] was inactive.

In the case of `CCCC[C@@H](CC(=O)N[C@@H](CCCCN)C(=O)N[C@@H](CCCC)C(N)=O)NC(=O)[C@H](CO)NC(=O)[C@@H](NC(=O)CNC(=O)C[C@H](NC(=O)[C@H](CO)NC(=O)[C@H](CCC(N)=O)NC(=O)C[C@H](NC(=O)[C@@H](NC(=O)[C@H](CCCCN)NC(=O)[C@@H]1CCCN1C(C)=O)[C@@H](C)CC)[C@@H](C)CC)C(C)C)[C@@H](C)CC`, the half-life at 50 µM in data set [5] came out at 3.58 h. The figures for the half-maximal inhibitory concentration (IC50) in data set [1] and in data set [2] were 3.11 µM and 10.3 µM, respectively.

Take `CC[C@H](C)[C@H](CC(=O)N[C@@H](CCC(N)=O)C(=O)N[C@@H](CO)C(=O)N[C@@H](CC(=O)NCC(=O)N[C@H](C(N)=O)[C@@H](C)CC)C(C)C)NC(=O)[C@@H](NC(=O)[C@H](CCCCN)NC(=O)[C@@H]1CCCN1C(C)=O)[C@@H](C)CC`: the 50% inhibitory concentration (IC50) in data set [1] is more than 75 µM; in data set [2] it was 41.8 µM. For the same compound, the result in data set [3] and in data set [4] was inactive.

For the compound `CCCC[C@H](NC(=O)[C@H](CO)NC(=O)[C@@H](NC(=O)CNC(=O)[C@@H](NC(=O)[C@H](CO)NC(=O)[C@H](CCC(N)=O)NC(=O)[C@@H](NC(=O)[C@@H](NC(=O)[C@H](CCCCN)NC(=O)[C@@H]1CCCN1C(C)=O)[C@@H](C)CC)[C@@H](C)CC)C(C)C)[C@@H](C)CC)C(N)=O`, the 50% inhibitory concentration (IC50) in data set [1] is 0.82 µM; in data set [2], 4.21 µM.

For `CCCC[C@@H](CC(=O)N[C@@H](CCCCN)C(=O)N[C@@H](CCCC)C(N)=O)NC(=O)[C@@H](CO)NC(=O)[C@@H](NC(=O)CNC(=O)C[C@H](NC(=O)[C@H](CO)NC(=O)[C@H](CCC(N)=O)NC(=O)C[C@H](NC(=O)[C@@H](NC(=O)[C@H](CCCCN)NC(=O)[C@@H]1CCCN1C(C)=O)[C@@H](C)CC)[C@@H](C)CC)C(C)C)[C@@H](C)CC`, the outcome in data set [3] and in data set [4] was inactive.

Consider `CCCC[C@@H](CC(=O)N[C@@H](CCCCN)C(=O)N[C@@H](CCCC)C(N)=O)NC(=O)[C@@H](CO)NC(=O)[C@@H](NC(=O)C[C@H](C)NC(=O)[C@@H](NC(=O)[C@@H](CO)NC(=O)[C@H](CCC(N)=O)NC(=O)C[C@H](NC(=O)[C@@H](NC(=O)[C@H](CCCCN)NC(=O)C[C@@H]1CCCN1C(C)=O)[C@@H](C)CC)[C@@H](C)CC)C(C)C)[C@@H](C)CC`, for which the outcome in data set [3] and in data set [4] was inactive.

For `CC[C@H](C)[C@H](NC(=O)C[C@H](C)NC(=O)[C@@H](NC(=O)[C@H](CO)NC(=O)[C@H](CCC(N)=O)NC(=O)C[C@@H](NC(=O)[C@@H](NC(=O)[C@H](CCCCN)NC(=O)C[C@@H]1CCCN1C(C)=O)[C@@H](C)CC)[C@@H](C)CC)C(C)C)C(=O)O`, the IC50 is 39.8 µM in data set [1] and 50.4 µM in data set [2]. Besides, the outcome in data set [3] and in data set [4] was inactive.
